# Assay results: US10450305B2, “LKB1-AMPK activators for therapeutic use in polycystic kidney disease” (The University of Kansas, priority 2014, dated 2019)
# How the values were obtained:
# [1] = Tolerability in wild type mice; format: in vivo; settings: mice, 5, 10 and 25 mg/kg i.p., once per day for 4 days
# Experimental: (§1) Normal mice were given BIT-11 at 5, 10 or 25 mg/kg body weight by daily intraperitoneal injection for 4 days. BIT-11 was delivered at 20% DMSO and 80% corn oil. Two hours after the last injection, the mice were sacrificed and the kidneys were snap-frozen and stored at −80 degree C., until tissue lysates were prepared. Tissues were homogenized in a lysis buffer containing detergent and protease and phosphatase inhibitors. Proteins were resolved by SDS PAGE and detected by immunoblot using P-AMPK and AMPK antibodies.
# (§2) Another study included dosing wild type mice with BIT-11 once per day for 4 days and measured P-AMPK levels in the kidneys two hours after the last dose.
# human ADPKD cells [2] = assay: Proliferation of human ADPKD cells (automated cell count); format: cell-based; settings: 10 to 1000 nM, 48 h, 0.05% fetal bovine serum
# Text: Cells were counted using an automated cell counter.
# human ADPKD cells [3] = assay: In vitro cyst growth of ADPKD cells within a collagen matrix; format: cell-based; settings: 5 μM forskolin and 5 ng/ml EGF, cysts diameter ≥50 μm
# Experimental: (§3) We designed and synthesized a small molecule LKB1 activator BIT-11 by incorporating an oxadiazole moiety into a unique 3-substituted 2H-chromene derivative. The effects of BIT-11 on phosphorylated AMPK (P-AMPK) and S6 kinase (P-S6K), a downstream target of mTOR, were determined by western blot analysis. To test the drug's effect on Cl^− transport, ADPKD monolayers were incubated in the absence and presence of BIT-11 and then treated with forskolin, a cAMP agonist. Changes in Cl^− transport were measured by short circuit current. For in vitro cyst growth assays, ADPKD cells were seeded within a collagen matrix and treated with EGF and forskolin±BIT-11, and total surface area of cysts per well was calculated from individual cyst diameters.
# Cells were seeded in PureCol Type I collagen and stimulated to form cysts with 5 μM forskolin (FSK) and 5 ng/ml epidermal growth factor (EGF) for 3 days. […] FIG. 4A includes representative images of individual wells.
# ADPKD cell monolayers [4] = assay: cAMP-induced Cl- secretion (short circuit current) across ADPKD cell monolayers; format: cell-based, human; settings: 10 μM for 24 hours, FSK 10 μM, n=10 pairs of monolayers
# Experimental: as §3
# FIG. 5A-5B show the effect of BIT-11 on cAMP-induced Cl^− secretion by ADPKD cell monolayers. ADPKD cells were grown as polarized monolayers on permeable Snapwell supports. […] ADPKD monolayers were mounted in Ussing chambers and treated with 10 μM benzamil to block the Na^+ current prior to the experiment. FSK (10 μM), a potent cAMP agonist, was added to maximally stimulate anion secretion.
# AMPK [5] = assay: Western blot of phosphorylated AMPK (P-AMPK/AMPK) in ADPKD cells; format: cell-based, human; settings: for phosphorylation of AMPK: 100 nm, 24 h; for rank order of the effect on AMPK phosphorylation: western blot
# Experimental: as §3, with “diameters. […] The numbers above blots indicate P-AMPK/AMPK normalized to control. […] ADPKD cells were treated with BIT129, BIT130, and BIT131 (e.g., 100 nm) for 24 h, then cell lysates were prepared. […] The rank order of the effect of the new drugs on AMPK phosphorylation was BIT-131>BIT-130>BIT-129.” for “diameters.”
# AMPK [6] = assay: P-AMPK levels in kidneys of wild type mice after i.p. dosing; format: in vivo, mouse; settings: wild type mice, 5, 10 or 25 mg/kg i.p. once per day for 4 days, two hours after last dose, compared to vehicle
# Experimental: as §1, §2
# Pkd1 mutant kidneys = assay: Ex vivo cyst formation in Pkd1-/- embryonic kidneys in metanephric organ culture; parameters: species or system mouse; settings: 10 μM, 100 μM 8-Br-cAMP, E15.5 kidneys, 4 days in culture
# Experimental: FIG. 6 includes images that show the effect of BIT-11 on cyst-like tubule expansions in Pkd1 mutant kidneys. Kidneys were harvested from Pkd1 mutant (Pkd1^−/−) mice at embryonic day 15.5 (E15.5) and placed on permeable cell culture inserts. The kidneys were bathed in media containing 100 μM 8-Bromo-adenosine 3′,5′-cyclic monophosphate (cAMP) to stimulate mural epithelial cell proliferation and Cl^−-dependent fluid secretion, key factors in cyst formation. Images of kidneys were captured using a digital camera connected to a dissecting microscope and cystic area was monitored for 4 days. cAMP induced the formation of cyst-like dilations in Pkd1^−/− kidneys that progressively enlarged over 4 days in culture.
# S6 kinase (S6K) = assay: Western blot of phosphorylated S6 kinase (P-S6K/S6K), downstream target of mTOR, in ADPKD cells; format: cell-based, human; settings: 24 hours, control media 0.05% fetal bovine serum
# Experimental: as §3, with “diameters. […] The numbers above blots indicate P-AMPK/AMPK normalized to control. […] ADPKD cells were treated with BIT129, BIT130, and BIT131 (e.g., 100 nm) for 24 h, then cell lysates were prepared. […] The rank order of the effect of the new drugs on AMPK phosphorylation was BIT-131>BIT-130>BIT-129.” for “diameters.”
# [7] = in vivo; cited from earlier work
# ADPKD cell monolayers [8] = settings: found previously, selective CFTR inhibitor; cited from earlier work
smiles,measurement,setting,value
O=C(O)c1ccc(-c2noc(C3=Cc4cc(Cl)cc(Cl)c4OC3c3ccccc3)n2)cc1 (stereo not drawn) [BIT-11],tolerability,[1],well tolerated
same,effect on proliferation of human ADPKD cells,human ADPKD cells [2],increasingly inhibit proliferation of ADPKD cells
same,total cyst surface area (in vitro cyst growth),human ADPKD cells [3],can inhibit cyst proliferation
same,cAMP-induced Cl- secretion (steady-state short circuit current),ADPKD cell monolayers [4],a decrease in cAMP-induced Cl^− secretion
same,effect on P-AMPK/AMPK,"AMPK [5]; ADPKD cells, BIT-11 at 10 nM, 100 nM and 1,000 nM, 24 hours",can promote phosphorylation of AMPK increasingly with increasing amounts
same,biological activity compared with AMPK activator Metformin,AMPK [5]; comparison with Metformin,much better efficacy
same,P-AMPK levels in the kidneys,AMPK [6],markedly increased P-AMPK levels in the kidneys
same,cyst formation in Pkd1-/- kidneys,Pkd1 mutant kidneys,nearly eliminated cyst formation
same,effect on P-S6K/S6K,S6 kinase (S6K),can inhibit phosphorylation of S6K increasingly at increasing amounts
OB(O)c1ccc(-c2noc(C3=Cc4cc(Cl)cc(Cl)c4OC3c3ccccc3)n2)cc1 (stereo not drawn) [BIT-130],phosphorylation of AMPK,AMPK [5]; ADPKD cells,can promote phosphorylation of AMPK
same,rank order of the effect on AMPK phosphorylation,AMPK [5]; ADPKD cells,BIT-131>BIT-130>BIT-129
CN(C)C(=N)N=C(N)N [Metformin],eliminated by renal excretion,[7],~80%
CC1(C)OB(c2ccc(-c3noc(C4=Cc5cc(Cl)cc(Cl)c5OC4c4ccccc4)n3)cc2)OC1(C)C (stereo not drawn) [BIT-129],phosphorylation of AMPK,AMPK [5]; ADPKD cells,can promote phosphorylation of AMPK
same,rank order of the effect on AMPK phosphorylation,AMPK [5]; ADPKD cells,BIT-131>BIT-130>BIT-129
O=C(O)c1ccc(/C=C2\SC(=S)N(c3cccc(C(F)(F)F)c3)C2=O)cc1 [CFTRinh-172],anion current across ADPKD monolayers,ADPKD cell monolayers [8],completely blocked
